{"source": "patent US9822373B2", "about": "“Mutant cells for protein secretion and lignocellulose degradation” (The Regents of the University of California, priority 2011, dated 2017)", "key": {"cbh-2 / gh6-2 (NCU09680)": {"test_system": "cbh-2 / gh6-2 (NCU09680)", "assay": "Quantitative RT-PCR of cbh-2/gh6-2 expression after 4 h induction with a carbon source", "assay_type": "cell-based, Neurospora crassa", "procedure": "(§1) Strains were inoculated at an OD595 equal to 0.05 in 50 ml Vogel's salts with 2% (wt/vol) sucrose in a 250 ml Erlenmeyer flask and grown under constant light at 200 rpm for 16 hours. The biomass was then spun at 4000 rpm for 10 minutes and washed in Vogel's twice to remove any excess sucrose. The biomass was then added to a new 50 ml culture with 2% (wt/vol) sucrose, cellobiose (Sigma) or Avicel® PH 101 (Avicel®). Cultures were induced for 4 hours under constant light at 200 rpm. The culture biomass was then harvested by filtration over a Whatman glass microfiber filter (GF/F) on a Buchner funnel and washed with 50 ml Vogel's, biomass was flash frozen in liquid Nitrogen and stored at −80° C.\n(§2) Total RNA from frozen samples was isolated using Zirconia/Silica beads (0.2 g, 0.5 mm diameter; Biospec) and a Mini-Beadbeater-96 (Biospec) with 1 mL TRIzol reagent (Invitrogen) according to manufacturer's instructions. Total RNA was further purified by digestion with TURBO DNA-free (Ambion) and an RNeasy kit (Qiagen). RNA integrity was checked by Nanodrop and agarose gel electrophoresis.\nQuantitative RT-PCR was performed using the EXPRESS One-Step SYBR GreenER Kit (Invitrogen) and the StepOnePlus Real-Time PCR System (Applied Biosystems). Reactions were performed in triplicate with a total reaction volume of 10 ul including 300 nM each forward and reverse primers and 75 ng template RNA. Data Analysis was performed by the StepOne Software (Applied Biosystems) using Relative Quantitation/Comparative CT (ΔΔCT). […]\nConidia from strains were inoculated at an OD595 equal to 0.05 in 50 ml Vogel's salts (45) with 2% w/v sucrose in a 250 ml Erlenmeyer flask and grown under constant light at 200 rpm for 16 hours. […] Three independent biological duplicates (flasks) were evaluated for each time point. […]\n(§3) Quantitative RT-PCR was performed using the EXPRESS One-Step SYBR GreenER Kit (Invitrogen) and the StepOnePlus Real-Time PCR System (Applied Biosystems). […] Data Analysis was performed by the StepOne Software (Applied Biosystems) using the Relative Quantitation/Comparative CT (ΔΔCT) setting. […]"}, "[1]": {"test_system": "endoglucanase 2 (eg-2 / gh5-1, NCU00762)", "assay": "Quantitative RT-PCR of eg-2/gh5-1 expression after 4 h induction with a carbon source", "assay_type": "cell-based, Neurospora crassa", "procedure": "as §1, §2\nQuantitative RT-PCR was performed using the EXPRESS One-Step SYBR GreenER Kit (Invitrogen) and the StepOnePlus Real-Time PCR System (Applied Biosystems). Reactions were performed in triplicate with a total reaction volume of 10 ul including 300 nM each forward and reverse primers and 75 ng template RNA. Data Analysis was performed by the StepOne Software (Applied Biosystems) using Relative Quantitation/Comparative CT (ΔΔCT). Data was normalized to the endogenous control actin with expression on sucrose as the reference sample. Error bars indicate a 95% confidence interval. The RT-PCR primers were used as described in (Tian et al., 2009).\nConidia from strains were inoculated at an OD595 equal to 0.05 in 50 ml Vogel's salts (45) with 2% w/v sucrose in a 250 ml Erlenmeyer flask and grown under constant light at 200 rpm for 16 hours. Biomass was then spun at 4200 rpm for 10 minutes and washed in Vogel's salts twice to remove any excess sucrose. Biomass was then added to a new flask containing 50 ml Vogel's salts supplemented with 1% w/v sucrose, 0.2% w/v cellobiose (Sigma) or 1% w/v Avicel® PH 101 (Sigma). Cultures were induced for 4 hrs under constant light at 200 rpm. The culture biomass was then harvested by filtration over a Whatman glass microfiber filter (GF/F) on a Buchner funnel and washed with 50 ml Vogel's salts. […] Three independent biological duplicates (flasks) were evaluated for each time point. […]\nas §3"}, "[2]": {"test_system": "cellulase genes (cbh-1, gh5-1, gh6-2)", "assay": "Quantitative RT-PCR, cellulase gene expression stated for the genes together", "assay_type": "cell-based, Neurospora crassa", "procedure": "Conidia from strains were inoculated at an OD595 equal to 0.05 in 50 ml Vogel's salts (45) with 2% w/v sucrose in a 250 ml Erlenmeyer flask and grown under constant light at 200 rpm for 16 hours. Biomass was then spun at 4200 rpm for 10 minutes and washed in Vogel's salts twice to remove any excess sucrose. […] Cultures were induced for 4 hrs under constant light at 200 rpm. The culture biomass was then harvested by filtration over a Whatman glass microfiber filter (GF/F) on a Buchner funnel and washed with 50 ml Vogel's salts. The biomass was flash frozen in liquid nitrogen and stored at −80° C. Three independent biological duplicates (flasks) were evaluated for each time point.\nTotal RNA from frozen samples was isolated using Zirconia/Silica beads (0.5 mm diameter; Biospec) and a Mini-Beadbeater-96 (Biospec) with 1 mL TRIzol reagent (Invitrogen) according to the manufacturer's instructions. The total RNA was further purified by digestion with TURBO DNA-free (Ambion) and an RNeasy kit (Qiagen). RNA concentration and integrity was checked by Nanodrop and agarose gel electrophoresis.\nQuantitative RT-PCR was performed using the EXPRESS One-Step SYBR GreenER Kit (Invitrogen) and the StepOnePlus Real-Time PCR System (Applied Biosystems). Reactions were performed in triplicate with a total reaction volume of 10 μl including 300 nM each forward and reverse primers and 75 ng template RNA. Data Analysis was performed by the StepOne Software (Applied Biosystems) using the Relative Quantitation/Comparative CT (ΔΔCT) setting. Data was normalized to the endogenous control actin with expression on sucrose as the reference sample."}, "cbh-1": {"test_system": "cbh-1", "assay": "mRNA sequencing (RNA-Seq), transcript abundance of cbh-1", "assay_type": "cell-based, Neurospora crassa", "conditions": "Δ3βG; 4 hours after transfer to 0.2% cellobiose", "procedure": "Conidia from strains were inoculated at an OD595 equal to 0.05 in 50 ml Vogel's salts (45) with 2% w/v sucrose in a 250 ml Erlenmeyer flask and grown under constant light at 200 rpm for 16 hours. Biomass was then spun at 4200 rpm for 10 minutes and washed in Vogel's salts twice to remove any excess sucrose. Biomass was then added to a new flask containing 50 ml Vogel's salts supplemented with 1% w/v sucrose, 0.2% w/v cellobiose (Sigma) or 1% w/v Avicel® PH 101 (Sigma). Cultures were induced for 4 hrs under constant light at 200 rpm. The culture biomass was then harvested by filtration over a Whatman glass microfiber filter (GF/F) on a Buchner funnel and washed with 50 ml Vogel's salts. The biomass was flash frozen in liquid nitrogen and stored at −80° C. Three independent biological duplicates (flasks) were evaluated for each time point.\nTotal RNA from frozen samples was isolated using Zirconia/Silica beads (0.5 mm diameter; Biospec) and a Mini-Beadbeater-96 (Biospec) with 1 mL TRIzol reagent (Invitrogen) according to the manufacturer's instructions. […]\nmRNA sequencing was performed using an Illumina kit (RS-100-0801) with isolated RNA. The final cDNA library was quantified by an Agilent bioanalyzer 2000 and sequenced using an Illumina Genome Analyzer-II using standard Illumina operating procedures. […]"}, "Neurospora crassa": {"test_system": "Neurospora crassa", "assay": "Secreted protein concentration in shake flask culture supernatant", "assay_type": "cell-based", "conditions": "Δcre-1; time not stated", "procedure": "Strains were inoculated at an OD595 equal to 0.05 in 100 ml Vogel's salts with 1% (wt/vol) sucrose in a 250 ml Erlenmeyer flask and grown under constant light at 200 rpm for 24 hours. Cultures were then induced with 2% sucrose, 2% cellobiose, 1% sucrose/1% cellobiose, or 1% sucrose/1% Avicel®. Cultures continued to grow under constant light at 200 rpm for 5 days with supernatant collected at 1, 2, 3, 4 and 5 day. The collected supernatant was filtered through a 0.2 μm PES filter to remove biomass before being stored at −20° C. until all samples were collected. To visualize the secreted proteins, 15 μl of unconcentrated supernatant was run on a Criterion 10% Tris-HCL polyacrylamide gel and stained with Thermo Scientific GelCode Blue Stain Reagent."}, "[3]": {"conditions": "WT strain, 2% carbon source, 4 h induction"}, "[4]": {"conditions": "triple β-glucosidase mutant, 2% carbon source, 4 h induction"}, "[5]": {"conditions": "Δcre-1 strain, shifted from sucrose to 0.2% cellobiose for 4 hrs"}}, "data": [{"smiles": "O=C[C@H](O)[C@@H](O)[C@H](O[C@@H]1O[C@H](CO)[C@@H](O)[C@H](O)[C@H]1O)[C@H](O)CO", "note": "[cellobiose]", "values": [{"measurement": "cbh-2 relative expression compared to sucrose", "setting": "cbh-2 / gh6-2 (NCU09680); [3]", "result": "no change"}, {"measurement": "cbh-2 increase in relative expression over expression on sucrose", "setting": "cbh-2 / gh6-2 (NCU09680); [4]", "result": "2,100 fold"}, {"measurement": "induction of gh6-2", "setting": "cbh-2 / gh6-2 (NCU09680); [5]", "result": 85, "unit": "fold"}, {"measurement": "eg-2 relative expression compared to sucrose", "setting": "[1]; [3]", "result": "no change"}, {"measurement": "eg-2 increase in relative expression over expression on sucrose", "setting": "[1]; [4]", "result": "2,200 fold"}, {"measurement": "increase in transcription of eg-2 above expression on sucrose in the same strain", "setting": "[1]; Δcre-1 strain, 4 h induction (Example 1)", "result": 80, "unit": "fold"}, {"measurement": "induction of gh5-1", "setting": "[1]; [5]", "result": 500, "unit": "fold"}, {"measurement": "induction of cbh-1, gh6-2, or gh5-1 expression", "setting": "[2]; individual β-glucosidase deletion strains (Δgh1-1, Δgh3-3 or Δgh3-4), 4 hr induction, 0.2%", "result": "did not show a significant induction"}, {"measurement": "induction of lignocellulolytic genes", "setting": "[2]; wild-type N. crassa (WT) grown on the substance as sole carbon source", "result": "not induced"}, {"measurement": "cellulase gene induction", "setting": "[2]; Δgh1-1Δgh3-3 double mutant, 4 hr induction, 0.2%", "result": "showed some cellulase gene induction"}, {"measurement": "FPKM for cbh-1", "setting": "cbh-1", "result": "130,865 FPKM"}, {"measurement": "cellulase secretion (secreted protein)", "setting": "Neurospora crassa", "result": 653, "unit": "µg/mL"}]}]}
